Measured values taken from PubChem BioAssay AID1963440 (Molecular Pharmacology Branch, DTP, NCI, 2024).
Several values for one entry are separate records, joined by “and”; a condition that tells them apart may be missing. Equal values may be shown once. One block for each molecule: values may come before it.

Tested on: NCI-H1417 complex spheroids, growth % test/control
Experiment: Anticancer human tumor NCI-H1417 cell line growth inhibition [Asc];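 also: spheroids exposed to compounds for 7 days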;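 as to viability, T/C: 100% = DMSO vehicle control wells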
Conditions: for viability, T/C: stronger effect = lower value
Method: Multicellular complex tumor spheroid response to apoptosis pathway targeting inhibitors Alrizomadlin, Pelcitoclax, and Dasminapant in combination with a variety of drugs and investigational agents in selected tumor cell lines
The MDM2 inhibitor alrizomadlin, the Bcl-2/Bcl-xL inhibitor pelcitoclax, and the IAPs inhibitor dasminapant were evaluated both individually and in combination with standard of care and investigational anticancer small molecules within a complex spheroid model of solid tumors. . Complex spheroids include a stromal component modeled by human endothelial cells (HUVEC) and fibroblasts modeled by human mesenchymal stem cells (MSCs). The concentration ranges selected for each drug and investigational agent were based upon clinically achievable concentrations if the clinical Cmax of the agent was known.
Compounds. The drugs and investigational agents: alrizomadlin (APG-115; NSC831270), pelcitoclax (APG-1252; NSC835773), dasminapant (APG-1387;NSC834197), TAK-243 (NSC785004), copanlisib (NSC809693), olaparib (NSC753686), talazoparib (NSC767125), cobimetinib (NSC 768068), eltanexor (KPT-8602, NSC 794443), abemaciclib (NSC 768073), sotorasib (NSC818433), adagrasib (NSC 831453), MRTX-1133 (NSC 836407), Iadademestat (ORY1001, NSC 806812), and RMC-4630 (NSC839698), were obtained from the NCI Developmental Therapeutics Program Chemical Repository. The FDA-approved anticancer drug set is available from the Developmental Therapeutics Program at https://dtp.cancer.gov/organization/dscb/obtaining/available plates.htm. […] The stock solutions were prepared in dimethyl sulfoxide (DMSO, Sigma-Aldrich, St. Louis, MO, cat. D2650) at 800-fold the tested concentration and stored at -70 degrees C prior to their use. All drugs and investigational agents were tested over a range starting from a high concentration at or near the clinical Cmax and decreasing in half-log increments. If the clinical Cmax for an agent had not been determined, the highest concentration tested was 10 microM.
The patient-derived cancer (PDC) cell lines include five colon adenocarcinomas: 186277-243-T-J2-PDC, 616215-338-R-J1-PDC, 439559-082-T-J2-PDC, 463943-066-T-J2-PDC, and 519858-162-T-J1-PDC; three pancreatic carcinomas: 323965-272-R-J2-PDC, 521955-158-R6-J3-PDC, and 521955-158-R2-J5-PDC; two uterine sarcomas: 327498-152-R-J2-PDC and 993429-296-R-J1-PDC; two rhabdomyosarcomas: 755483-174-R-J1-PDC and 772245-204-R-J1-PDC; two soft tissue sarcomas: 126254-015-R-J1-PDC and 494315-158-R-J1-PDC; two malignant fibrous histiocytomas: 317291-083-R-J1-PDC and 596521-263-R-J1-PDC; two breast carcinomas: 171881-019-R-J1-PDC and 885512-296-R-J2-PDC; and one ovarian carcinoma: 6556581-035-R-J-PDC were obtained from the NCI PDMR, (https://pdmr.cancer.gov). The established cell lines HSSY-2 synovial sarcoma (RRID:CVCL 8719), SYO-1 synovial sarcoma (RRID:CVCL_7146), MPNST malignant peripheral neural sheath tumor were obtained from the Sloan Kettering Institute. The following established cell lines were purchased from the American Type Culture Collection (ATCC, Manassas, VA), Sor the received from the NCI repository:, PANC-1 pancreatic carcinoma (CRL-1469, RRID:CVCL_0480), OVCAR-5 ovarian carcinoma (RRID:CVCL_1628), OVCAR-8 ovarian carcinoma (RRID:CVCL_1629), , MCF-7 breast carcinoma (CRL-12584, RRID:CVCL_0031), MDA-MB-231 breast carcinoma (CRL-12532, RRID:CVCL_0062), NCI-H1876 small cell lung carcinoma (CRL-5902, RRID:CVCL_1503), NCI-H510A small cell lung carcinoma (HTB-184, RRID:CVCL_1565), NCI-H1417 (CRL-5869, RRID:CVCL_1469), and NCI-H196 small cell lung carcinoma (CRL-5823, RRID:CVCL_1509). Dr. Peter Houghton (Greehey Children's Cancer Research Institute, University of Texas Health Science Center, San Antonio, TX) provided Rh-18 rhabdomyosarcoma (RRID:CVCL_1659). Pooled donor human umbilical vein endothelial cells (HUVEC, Lonza, cat. CC-2519) and human mesenchymal stem cells (hMSC, Lonza, cat. PT-2501) were purchased from Lonza (Walkersville, MD).
Cell Culture. […]

[1] = compound alone, run of 10/11/2022

SMILES: C#Cc1c(F)ccc2cc(O)cc(-c3ncc4c(N5CC6CCC(C5)N6)nc(OCC56CCCN5CC(F)C6)nc4c3F)c12 (stereo not drawn)
viability, T/C (compound 0.0316 µM): 93% and 102% and 110%
viability, T/C (compound 0.1 µM): 89.5% and 97.4% and 102%
viability, T/C (compound 0.316 µM): 94.3% (2×) and 101%
viability, T/C (compound 1 µM): 106% and 98.8% and 97.6%
viability, T/C (compound 3.16 µM): 96.5% and 100% and 101%
viability, T/C (compound 10 µM): 72.5% and 96.5% and 83%
IC50 (curve of compound): > 10000 nM

SMILES: C=CC(=O)N1CCN(c2nc(=O)n(-c3c(C)ccnc3C(C)C)c3nc(-c4c(O)cccc4F)c(F)cc23)C(C)C1 (stereo not drawn)
viability, T/C (compound 0.0316 µM): 111% and 108% and 110%
viability, T/C (compound 0.1 µM): 105% and 90.2% and 96.7%
viability, T/C (compound 0.316 µM): 112% and 98.4% and 106%
viability, T/C (compound 1 µM): 111% and 105% and 101%
viability, T/C (compound 3.16 µM): 99.4% and 104% and 103%
viability, T/C (compound 10 µM): 99.5% and 102% and 94.5%
IC50 (curve of compound): > 10000 nM

SMILES: CCN1CCN(Cc2ccc(Nc3ncc(F)c(-c4cc(F)c5nc(C)n(C(C)C)c5c4)n3)nc2)CC1
viability, T/C (compound 0.00316 µM): 99.3% and 89.7% and 102%
viability, T/C (compound 0.01 µM): 95.8% and 105% and 93.8%
viability, T/C (compound 0.0316 µM): 99.9% and 102% and 101%
viability, T/C (compound 0.1 µM): 96.5% and 111% and 105%
viability, T/C (compound 0.316 µM): 92.8% and 84.3% and 97.3%
viability, T/C (compound 1 µM): 91.7% and 81% and 79.7%
IC50 (curve of compound): > 1000 nM

SMILES: Cc1c(S(C)(=O)=O)c(-c2cc(F)cc(N3CCN(c4ccc(NS(=O)(=O)c5ccc(NC(CCN6CCC(C(=O)OCCCP(=O)(O)O)CC6)CSc6ccccc6)c(S(=O)(=O)C(F)(F)F)c5)cc4)CC3)c2)c(-c2ccc(Cl)cc2)n1C(C)C (stereo not drawn)
viability, T/C (compound 0.1 µM): 81.6% [middle of 14 runs]
viability, T/C (compound 0.316 µM): 50.6% [middle of 14 runs]
viability, T/C (compound 1 µM): 13.7% [middle of 14 runs]
viability, T/C (compound 3.16 µM): 3.19% [middle of 14 runs]
viability, T/C (compound 10 µM): 2.54% [middle of 12 runs]
IC50 [1]: 322 nM [middle of 14 runs]

SMILES: NC(=O)C(=Cn1cnc(-c2cc(C(F)(F)F)cc(C(F)(F)F)c2)n1)c1cncnc1
viability, T/C (compound 0.000949 µM): 98.9% and 102% and 99.9%
viability, T/C (compound 0.003 µM): 99.9% and 106% and 107%
viability, T/C (compound 0.00949 µM): 89.7% and 96.8% and 104%
viability, T/C (compound 0.03 µM): 93% and 97.1% and 94.3%
viability, T/C (compound 0.0949 µM): 79.8% and 61.8% and 85.1%
viability, T/C (compound 0.3 µM): 25.3% and 22.2% and 44.6%
IC50 (curve of compound): 178 nM and 134 nM and 259 nM

SMILES: NC1CCC(NC2CC2c2ccccc2)CC1 (stereo not drawn)
viability, T/C (compound 0.000316 µM): 94.2% and 90.8% and 94.6%
viability, T/C (compound 0.001 µM): 91.8% and 89.6% and 93.2%
viability, T/C (compound 0.00316 µM): 89.5% and 86.4% and 89.2%
viability, T/C (compound 0.01 µM): 83.2% and 78.4% and 87.9%
viability, T/C (compound 0.0316 µM): 89% and 84.6% and 88.3%
viability, T/C (compound 0.1 µM): 82.3% and 78.4% and 97.6%
IC50 (curve of compound): > 100 nM

Further lines, with some results ahead:

IC50 (curve of compound): 3830 nM and 3660 nM and 4610 nM
SMILES: C=C(F)C(=O)N1CCN(c2nc(OCC3CCCN3C)nc3c2CCN(c2cccc4cccc(Cl)c24)C3)CC1CC#N (stereo not drawn)
viability, T/C (compound 0.0316 µM): 98.9% and 103% and 94.2%
viability, T/C (compound 0.1 µM): 106% and 101% and 88%
viability, T/C (compound 0.316 µM): 96.4% and 99.8% and 99.7%
viability, T/C (compound 1 µM): 90.7% and 84.8% and 90.3%
viability, T/C (compound 3.16 µM): 59.8% and 57.5% and 74.3%
viability, T/C (compound 10 µM): 0.26% and 0.27% and 0.31%

IC50 [1]: > 3000 nM
IC50 (curve of compound): > 3000 nM
SMILES: CCN1C(C(=O)NC23CCC(C(=O)O)(CC2)CC3)C(c2cccc(Cl)c2F)C2(C(=O)Nc3cc(Cl)ccc32)C12CCCCC2 (stereo not drawn)
viability, T/C (compound 0.00949 µM): 102% and 109%
viability, T/C (compound 0.03 µM): 102% [middle of 15 runs]
viability, T/C (compound 0.0949 µM): 101% [middle of 15 runs]
viability, T/C (compound 0.3 µM): 97.9% [middle of 15 runs]
viability, T/C (compound 3 µM): 93.4% [middle of 15 runs]

IC50 (compound alone, run of 10/24/2022): > 1000 nM
IC50 (compound alone, run of 11/15/2022): > 1000 nM
IC50 (curve of compound): > 1000 nM
SMILES: CNC(C)C(=O)NC1CN(S(=O)(=O)c2cccc(S(=O)(=O)N3CCC4CCC(C(=O)NC(c5ccccc5)c5ccccc5)N4C(=O)C(NC(=O)C(C)NC)C3)c2)CCC2CCC(C(=O)NC(c3ccccc3)c3ccccc3)N2C1=O (stereo not drawn)
viability, T/C (compound 0.00316 µM): 95% and 113% and 107%
viability, T/C (compound 0.01 µM): 105% [middle of 14 runs]
viability, T/C (compound 0.0316 µM): 97.8% [middle of 13 runs]
viability, T/C (compound 0.316 µM): 96.8% [middle of 14 runs]
viability, T/C (compound 1 µM): 97.5% [middle of 14 runs]

IC50 (curve of compound): > 1000 nM
SMILES: COc1c(OCCCN2CCOCC2)ccc2c3n(c(=NC(=O)c4cnc(N)nc4)nc12)CCN3
viability, T/C (compound 0.00316 µM): 94.5% and 101% and 96.7%
viability, T/C (compound 0.01 µM): 100% and 96.2% and 99%
viability, T/C (compound 0.0316 µM): 82.9% and 83.8% and 91.8%
viability, T/C (compound 0.1 µM): 76.9% and 73.8% and 90.3%
viability, T/C (compound 0.316 µM): 69% and 70.4% and 77.1%
viability, T/C (compound 1 µM): 54.8% and 47.9% and 64%

IC50 (curve of compound): > 3000 nM
SMILES: Cc1nc(N2CCC3(CC2)COC(C)C3N)c(CO)nc1Sc1ccnc(N)c1Cl (stereo not drawn)
viability, T/C (compound 0.00949 µM): 83.4% and 92.6% and 92.5%
viability, T/C (compound 0.03 µM): 82.8% and 102% and 101%
viability, T/C (compound 0.0949 µM): 104% and 101% and 77.7%
viability, T/C (compound 0.3 µM): 112% and 84.2% and 93%
viability, T/C (compound 0.949 µM): 101% and 84% and 83.2%
viability, T/C (compound 3 µM): 76.5% and 70.5% and 76.4%

IC50 (curve of compound): 58.2 nM and > 100 nM and 32.1 nM
SMILES: Cn1ncnc1[C@H]1c2n[nH]c(=O)c3cc(F)cc(c23)N[C@@H]1c1ccc(F)cc1
viability, T/C (compound 0.000316 µM): 101% and 113% and 97.4%
viability, T/C (compound 0.001 µM): 90.8% and 116% and 85%
viability, T/C (compound 0.00316 µM): 81.6% and 87.3% and 69.7%
viability, T/C (compound 0.01 µM): 70.8% and 75.9% and 67.2%
viability, T/C (compound 0.0316 µM): 56.4% and 77% and 57%
viability, T/C (compound 0.1 µM): 44% and 79.8% and 30.6%

IC50 (curve of compound): 4830 nM and 4200 nM and 6310 nM
SMILES: O=C(c1cc(Cc2n[nH]c(=O)c3ccccc23)ccc1F)N1CCN(C(=O)C2CC2)CC1
viability, T/C (compound 0.0316 µM): 96.7% and 102% and 86.3%
viability, T/C (compound 0.1 µM): 106% and 90.7% and 91.3%
viability, T/C (compound 0.316 µM): 89.8% and 84.6% and 86.3%
viability, T/C (compound 1 µM): 80.9% and 84.3% and 99.2%
viability, T/C (compound 3.16 µM): 56.5% and 56.2% and 71%
viability, T/C (compound 10 µM): 38.3% and 24.6% and 36%

IC50 (curve of compound): > 1000 nM
SMILES: O=C(c1ccc(F)c(F)c1Nc1ccc(I)cc1F)N1CC(O)([C@@H]2CCCCN2)C1
viability, T/C (compound 0.00316 µM): 89.8% and 105% and 96.8%
viability, T/C (compound 0.01 µM): 99.2% and 107% and 97.3%
viability, T/C (compound 0.0316 µM): 84.4% and 103% and 97.9%
viability, T/C (compound 0.1 µM): 89% and 98.1% and 116%
viability, T/C (compound 0.316 µM): 88.8% and 94.5% and 97.2%
viability, T/C (compound 1 µM): 65.3% and 83.7% and 98.2%
